This is an account of results in patent US20250255293A1, “TISSUE DECONTAMINATION AND PRESERVATION SYSTEM” (priority 2024, published 2025).

Molecules are shown by their SMILES. Where “and” joins values, the source holds several entries; their conditions need not be identical. Equal entries are not always repeated. Where two headings read alike, the source gives them in different places.

Series [1] has as its system contaminated osteochondral tissues. The settings on record: 10% povidone-iodine or 0.4% chlorhexidine, 20-minute immersion; cited from earlier work.
The subject of series [2] is canines with grade 3 open femoral bicondylar fracture. The series can be described thus: Functional outcomes after reimplantation of decontaminated fracture fragment (Example 4). It counts as in vivo, canine. How it is done: A grade 3 open femoral bicondylar fracture was created in 3 canines. A lateral parapatellar approach was used, the fragment was cultured and retrieved. The fragment was irrigated, treated with 0.002% chlorhexidine for 20 minutes, irrigated, and stored in MOPS® for 7 days, after which the fragment was reimplanted, and both condyles were repaired with 3.5 mm cannulated lag screws. After 3 months, quantitative bacterial cultures (CFU/g; Table 2) and functional outcomes (Table 3) were measured.

In the next series the test system is human chondrocyte. The settings on record: cited from earlier work.
The test system of series [3] is chondrocytes of osteoarticular fracture fragments. Kind of series: Viable chondrocyte density, live-dead calcein AM / ethidium homodimer assay (Example 3). Conditions: for Viable Chondrocyte Density, mean (SD): 20 min immersion (10% povidone-iodine or 0.002% chlorhexidine). Format: cell-based, canine. The source says: (§1) Purpose-bred hounds (n=16) were humanely euthanized, immediately after which an open articular fracture in both elbows (n=32) was created using a captive bolt pistol. Each dog was positioned in sternal recumbency with one forelimb extended and secured in a custom made positioning apparatus. Fur was not clipped and no aseptic preparation or techniques were implemented. A captive bolt stunner pistol with a 4.75-inch penetrating pin and 1.25 grain cartridge was centered on the cranial (anterior) aspect of the distal humerus, immediately proximal to the joint. With firm pressure against the secured elbow, the pistol was discharged, and the procedure was repeated for the contralateral elbow. Soft tissues were removed aseptically and the distal humerus (n=32), proximal radius (n=32), and trochlea (n=32) were osteotomized and processed under operating room conditions in 1 of 3 ways: 1) Betadine ([…]): 0.9% saline irrigation (1 L), 10% povidone-iodine solution immersion (20 min), saline irrigation; 2) Chlorhexidine (n=42): saline irrigation, 0.002% chlorhexidine solution immersion (20 min), saline irrigation; 3) Control (n=12): untreated. Each osteoarticular fragment was placed in 200 ml of MOPS® solution (500 ml DMEM, 5 ml ITS (insulin (10 mg/L), transferrin 55 mg/L), selenium (6.7 μg/L)), 5 ml total penicillin (100 U/ml), streptomycin (100 μg/ml), amphotericin B (2.5 μg/ml), 5 ml L-glutamine (2 mM), 5 ml non-essential amino acids (0.1 mM), 1 ml ascorbic acid (50 ng/ml), and 5.46 ml dexamethasone (0.1 μM)) in a sterile container and stored under standard room temperature and humidity conditions for 7 (n=46) or 14 (n=48) days. At each time point, viable chondrocyte density (VCD) and quantitative microbial culture assessments were assayed, yielding a count of colony forming units (CFU) per specimen.
Viable chondrocyte density (VCD) was evaluated using a live-dead calcein AM (live stain) and ethidium homodimer (dead stain) assay, as previously described (Cook, et al., Am. J. Sports Med. 44:1260-1268, 2016). A minimum of two images from each osteochondral fragment were assessed via fluorescent microscopy. The VCD was determined by counting the number of viable cells in each image and dividing this by the area of the tissue in the image (#of viable cells/area of cartilage tissue mm^2). This methodology was aimed at providing an objective and quantifiable assessment of cell viability post-treatment.
(§2) Univariate comparison of VCD and CFU were performed via Kruskal-Wallis and Chi-squared test. Multivariate linear regression was used, controlling for osteotomy site and storage time, to determine the correlation between processing method and VCD or CFU. Data manipulation and statistical analysis were performed using R software.

The test system of another series is cells in bone. The settings on record: decontamination with 2% chlorhexidine gluconate; cited from earlier work.
In series [4] the test system is microbial contamination of osteoarticular fracture fragments. The series can be described thus: Quantitative microbial culture of osteoarticular fragments, colony forming units per specimen (Example 3). Format: cell-based. Conditions: for Colony Forming Units, mean (SD): 20 min immersion (10% povidone-iodine or 0.002% chlorhexidine).
Source text: as §1
In parallel, quantitative microbial cultures were performed on the humerus, radial head, and trochlea of each dog at either 7 or 14 days. Each tissue intended for culture was placed into 18 ml thioglycollate broth and vortexed for 30 seconds. One milliliter of the broth was immediately extracted for the 1:1 dilution and placed in an Eppendorf tube. Serial 1:10 dilutions were made from that subsample and plated within an hour. The plating process comprised 10 μl of each dilution streaked semi-quantitatively onto tryptic soy agar with 5% sheep blood and reduced blood agar. All dilutions were incubated for 72 hours before counting. Additional incubation in the remaining 17 ml thioglycollate for 48 hours was performed, and 10 μl of thioglycollate was re-streaked at that time and incubated for another 72 hours. Organisms were identified via MALDI-TOF or 16S sequencing.
as §2

The mark [5] stands for this setting: 3 months after reimplantation of fragment treated with 0.002% chlorhexidine and stored in MOPS 7 days.
[6] abbreviates: saline irrigation, 0.002% chlorhexidine immersion, room temperature storage in MOPS.
Setting [7] is: storage time 7 days in MOPS at room temperature.
Setting [8] is: storage time 14 days in MOPS at room temperature.

With `[H]/N=C(\N/C(=N/[H])NCCCCCCNC(=N)NC(=N)Nc1ccc(Cl)cc1)Nc1ccc(Cl)cc1` [Chlorhexidine, chlorhexidine gluconate], the “decontamination of contaminated osteochondral tissues” value in series [1] is recorded as “effective at fully decontaminating”. Besides, in series [2] (setting [5]), the “Function (VAS) Post” value was 9 and 8.8 and 9.3. Moreover, the “ROM Post” value in series [2] (setting [5]) is 101 degrees and 97 degrees and 104 degrees. In series [2] (Post, individual dogs), the “Pain (VAS) Post” value is reported as 0. The “Pain (VAS) Pre” value in series [2] (Pre, individual dogs) is 1.2 and 1.9 and 0.6. Further, the “Function (VAS) Pre” value in series [2] (baseline, individual dogs) worked out at 10. In addition, in series [2] (baseline, individual dogs), the “ROM Pre” value is 108 degrees and 107 degrees and 109 degrees. The “chondrocyte viability after treatment” value is reported as “preserving chondrocyte viability for up to 7 days” in the series on human chondrocyte (0.002% chlorhexidine gluconate, 7 days in tissue culture, listed as Chlorhexidine Gluconate); “maintain chondrocyte viability at day-0 level for 7 days” in the series on human chondrocyte (0.002% chlorhexidine gluconate, 7 days in tissue culture, listed as chlorhexidine gluconate); “significant chondrocyte viability loss within 24 hours” in the series with human chondrocyte (higher concentrations of CHG than 0.002%). Also, the entries for the “mean VCD” value in series [3] (at 7 days) and in series [3] (at 14 days) were 772 and 710, respectively. Also, the “increase of VCD relative to control treatment” value in series [3] (multivariate linear regression, controlling for storage timing and osteotomy site) is 377 VCD. Also, in series [3] (setting [6]), the “maintenance of chondrocyte viability (in words)” value is on record as “maintaining chondrocyte viability for up to 14 days”. The “Viable Chondrocyte Density, mean (SD)” value in series [3] (setting [7]) is reported as 772.3 (257.0) mm^−2; in series [3] (setting [8]), 709.5 (338.0) mm^−2. Moreover, the “cell viability in bone” value in the series on cells in bone was “complete loss of cell viability”. Besides, the “mean CFU” value came out at 0.4 in series [4] (at 7 days) and 7.9 in series [4] (at 14 days). For the same molecule, the “decrease of CFU relative to control treatment” value in series [4] (multivariate linear regression, controlling for osteotomy site and storage timing) is recorded as 15.8×10^6 CFU. Besides, in series [4] (setting [6]), the “decontamination of osteoarticular fracture fragments (in words)” value is “effective for decontaminating osteoarticular fracture fragments”. For the same molecule, the “Colony Forming Units, mean (SD)” value in series [4] (setting [7]) was 0.4 (1.8) 10^6 per specimen; in series [4] (setting [8]), 7.9 (14.2) 10^6 per specimen.
